Reference: patent US6949648B2, “Condensed pyrazole derivatives, process for producing the same and use thereof” (Takeda Pharmaceutical Company Limited, priority 2000, dated 2005)
Counter-ions that a name gives are not always drawn. Like-named read-outs stand apart in the source and are kept apart here. Marks after values point to notes of the source that are not given here.

What was measured:
[1] = system: OVA-specific IgG2a (Th1 type); assay: Effect on antibody production of ovalbumin-sensitized mice: IgG2a; type: in vivo, BALB/c mouse; details: 30 mg/kg b.w. orally, 5 days a week during 9-day period, serum 11 days after first sensitization, ELISA; for inhibition in vivo at 30 mg/kg: Mus musculus, po, 264 h, read-out: Suppression Rate (%) IgG2a
Description: (§1) Effect on Antibody Production of Mice Sensitized by Controlled-Release Ovalbumin
(§2) A male BALB/c mouse (Charles River) of 7 weeks old was sensitized by intraabdominal administration, twice at an interval of a week, of a mixture of 10 μg/mouse of ovalbumin (OVA; albumin chicken egg grade III; Sigma Chemical) and 1 mg of aluminum hydroxide hydrate gel suspension (Alum; LSL Co. LTD.). After 11 days from the first sensitization, blood was collected from beneath eye under ether anesthesia, and the amount of OVA-specific IgE, IgG1 (Th2 type) and IgG2a (Th1 type) antibodies in the serum were determined by the ELISA method. A sample compound (30 mg/kg b.w.) was suspended in 0.4 ml of methylcellulose (MC), and the suspension was orally administered, 5 days a week during the 9-day period from the initiation day of sensitization to the day before the day of blood sample collection (1 Group, n=8 to 10).

IFN-γ = assay: Effect on cytokine production of mice sensitized by controlled-release ovalbumin: IFN-γ; type: in vivo, BALB/c mouse; details: 30 mg/kg b.w. orally, 5 days a week during 9-day period, splenic cells incubated with OVA 3 days, ELISA; for inhibition in vivo at 30 mg/kg: Mus musculus, po, read-out: Suppression Rate (%) IFN-γ
Description: (§3) Effect on Cytokine Production of Mice Sensitized by Controlled-Release Ovalbumin
(§4) An osmotic pump (Alza Co., USA) containing a solution (100 μL) containing 1.0 mg of ovalbumin (OVA; albumin chicken egg grade III, Sigma Chemical) was implanted in the back of a male BALB/c mouse (Charles River) of 8 weeks old under ether anesthesia, and the mouse is sensitized by the controlled-release ovalbumin. After 11 days from implantation of the pump, a sample of spleen was removed, and a splenic cell suspension was prepared by the use of the RPMI-1640 medium (Bio Whittaker Inc., USA) containing inactivated fetal bovine serum (10% V/V; Bio Whittaker Inc., USA), 2-mercaptoethanol (50 μM), and gentamicin (20 μg/ml). A sample compound (30 mg/kg b.w.) was suspended in 0.4 ml of methylcellulose (MC), and the suspension was orally administered, 5 days a week during the 9-day period from the initiation day of sensitization to the day before the day of blood sample collection (1 Group, n=10). The splenic cell suspension was adjusted to a concentration of 5.0×10^6 cells/ml, and the resulting suspension (100 μl) was pipetted onto a 96 well U-bottomed plate, each of the wells containing a solution (100 μl/well) of 400 μg/ml OVA, and the plate was incubated at 37° C. in a 5% carbon dioxide gas incubator for 3 days. The cultured media were centrifuged at 200×g for 5 minutes, and the supernatants were collected and the production of IL-4, IL-5 and IFN-γ in each of the supernatants was determined by the ELISA method [Mouse IL-4 Bulk Kit (PerSeptive Biosystems), Mouse IL-5 Bulk Kit (PerSeptive Biosystems), and Mouse IFN-γ Bulk Kit (PerSeptive Biosystems)].

IL-5 = assay: Effect on cytokine production of mice sensitized by controlled-release ovalbumin: IL-5; type: in vivo, BALB/c mouse; details: 30 mg/kg b.w. orally, 5 days a week during 9-day period, splenic cells incubated with OVA 3 days, ELISA; for inhibition in vivo at 30 mg/kg: Mus musculus, po, read-out: Suppression Rate (%) IL-5
Description: as §3, §4

OVA-specific IgE = assay: Effect on antibody production of ovalbumin-sensitized mice: IgE; type: in vivo, BALB/c mouse; details: 30 mg/kg b.w. orally, 5 days a week during 9-day period, serum 11 days after first sensitization, ELISA; for inhibition in vivo at 30 mg/kg: Mus musculus, po, 264 h, read-out: Suppression Rate (%) IgE
Description: as §1, §2

IL-4 = assay: Effect on cytokine production of mice sensitized by controlled-release ovalbumin: IL-4; type: in vivo, BALB/c mouse; details: 30 mg/kg b.w. orally, 5 days a week during 9-day period, splenic cells incubated with OVA 3 days, ELISA; for inhibition in vivo at 30 mg/kg: Mus musculus, po, read-out: Suppression Rate (%) IL-4
Description: as §3, §4

[2] = system: carrageenin edema of right hind limb plantar; assay: Anti-inflammatory activity, carrageenin edema method; type: in vivo, SD-rats; details: po, 10 mg/kg orally
Description: Anti-Inflammatory Activity
Male SD-rats (6 weeks old, CLEA Japan) were used (1 group, n=6). The Carrageenin edema method was performed according to the method of Winter et. al., (Proc. Soc. Exp. Biol. Med., vol. 111, p. 544-547, 1962). After the volume of right hind limb plantar of the rat was determined, a sample was orally administered (1.0 mL, b.w.), and immediately water was orally administered in an amount of 5 mL/rat. Meanwhile, only the solvent of the sample was orally administered to rats in control. After 1 hour, a solution of 1% carrageenin in saline (0.05 mL) was injected into the right hind limb plantar subcutaneously to induce edema. After 2 and 3 hours later from the injection, volumes of the right hind limb plantar were determined. The repression rate (%) of the sample was calculated by comparing the difference of the volumes of the plantar before the carrageenin shot and 2 and 3 hours after the shot between the sample groups and the control groups.

[3] = system: acetic acid induced rising and stretching; assay: Analgesic activity, acetic acid rising method; type: in vivo, ICR-mice; details: po, 20 min; 10 mg/kg orally, 30 minutes before 0.6% acetic acid i.p.; number of rising and stretching in 20 minutes; read-out: Repression rate (%) Dosage 10 mg/kg
Description: Analgesic Activity Acetic Acid Rising Method Male ICR-mice (5 weeks old, CLEA Japan) were used (1 group, n=10), and a sample was orally administered (0.2 mL/10 g, b.w.). After 30 minutes, 0.6% acetic acid solution was injected to mice intraperitoneally (0.1 mL/10 g, b.w.), and the mice were immediately transferred into an observation cage made of a transparent acrylic resin. The number of rising and stretching during the following period of 20 minutes was counted. The repression rate (%) was calculated by comparing the average numbers between the sample groups and the control groups.

SMILES	inhibition in vivo at 30 mg/kg [1]	inhibition in vivo at 30 mg/kg (IFN-γ)	inhibition in vivo at 30 mg/kg (IL-5)	inhibition in vivo at 30 mg/kg (OVA-specific IgE)	inhibition in vivo at 30 mg/kg (IL-4)	other results
CCOc1cccc(-n2nc(C)c3c(Cl)c4c(C)cccc4nc32)n1 [Example 1-57, 4-Chloro-3,5-dimethyl-1-(6-ethoxy-2-pyridinyl)-1H-pyrazolo[3,4-b]quinoline]	-55.1%	36.7%	53.9%	23.6%	43.2%	–
Cc1cccnc1-n1nc(C)c2c(Cl)c3ccccc3nc21 [Example 1-56, 4-Chloro-3-methyl-1-(3-methyl-2-pyridinyl)-1H-pyrazolo[3,4-b]quinoline]	–	12.2%	12.2%	–	23.7%	–
CCOc1cccc(-n2nc(C)c3c(=O)c4cccc(C)c4[nH]c32)n1 [Example 1-61, 3,8-Dimethyl-1-(6-ethoxy-2-pyridinyl)-1,9-dihydro-4H-pyrazolo[3,4-b]quinolin-4-one]	–	-8.7%	26.1%	–	16%	–
Cc1nn(-c2ccccn2)c2[nH]c3cc(F)c(Cl)cc3c(=O)c12 [Example 2-99, 6-Chloro-7-fluoro-3-methyl-1-(2-pyridinyl)-1,9-dihydro-4H-pyrazolo[3,4-b]quinolin-4-one]	–	–	–	–	–	inhibition in vivo at 10 mg/kg ([2]; 2 hr after carrageenin injection, read-out: Repression rate (%) Dosage 10 mg/kg 2 hr later): 46%; inhibition in vivo at 10 mg/kg ([2]; 3 hr after carrageenin injection, read-out: Repression rate (%) Dosage 10 mg/kg 3 hr later): 41%; melting point: 284 °C; inhibition in vivo at 10 mg/kg [3]: 39%
Cc1nn(-c2ccccn2)c2nc3ccccc3c(N)c12.Cl [Example 1-36, 3-Methyl-1-(2-pyridinyl)-1H-pyrazolo[3,4-b]quinolin-4-ylamine hydrochloride]	23.4%	-131%	61.5%	64.2%	99.8%	melting point: 268 to 271 °C
Cc1nn(Cc2ccccn2)c2[nH]c3ccccc3c(=O)c12 [Example 1-69, 3-Methyl-1-(2-pyridinylmethyl)-1,9-dihydro-4H-pyrazolo[3,4-b]quinolin-4-one]	–	8.3%	50%	–	19.4%	–
CCOc1cccc(-n2nc(C)c3c(N)c4cccc(C)c4nc32)n1 [Example 1-60]	–	–	–	–	–	Suppression Rate (%) IgG2a [1]: 47.8%; Suppression Rate (%) IFN-γ (IFN-γ): 23.4%; Suppression Rate (%) IL-5 (IL-5): 59.3%; Suppression Rate (%) IgE (OVA-specific IgE): 54.9** %; Suppression Rate (%) IL-4 (IL-4): 56.7%
COc1cc2[nH]c3c(c(C)nn3-c3ccccn3)c(=O)c2cc1OC [Example 1-49, 6,7-Dimethoxy-3-methyl-1-(2-pyridinyl)-1,9-dihydro-4H-pyrazolo[3,4-b]quinolin-4-one]	–	-9%	11.8%	–	13.9%	–
Cc1cccc2nc3c(c(C)nn3-c3ccccn3)c(N)c12 [Example 1-44, 3,5-Dimethyl-1-(2-pyridinyl)-1H-pyrazolo[3,4-b]quinolin-4-ylamine]	–	36.3%	3.1%	–	68.2%	melting point: 252 to 255 °C
COc1cccc2c(N)c3c(C)nn(-c4ccccn4)c3nc12 [Example 1-48, 8-Methoxy-3-methyl-1-(2-pyridinyl)-1H-pyrazolo[3,4-b]quinolin-4-ylamine hydrochloride]	–	-7.6%	16.2%	–	31.6%	–
Cc1nn(-c2cccnc2)c2[nH]c3ccccc3c(=O)c12 [Example 1-64, 3-Methyl-1-(3-pyridinyl)-1,9-dihydro-4H-pyrazolo[3,4-b]quinolin-4-one]	–	-6.8%	39.9%	–	49.1%	–
CSc1ccc2[nH]c3c(c(C)nn3-c3ccccn3)c(=O)c2c1 [Example 1-50, 3-Methyl-6-(methylsulfanyl)-1-(2-pyridinyl)-1,9-dihydro-4H-pyrazolo[3,4-b]quinolin-4-one]	19.5%	11.1%	60.2%	22%	45.5%	melting point: 182 to 185 °C
COc1cccc(-n2nc(C)c3c(N)c4cccc(C)c4nc32)n1 [Example 1-59, 3,8-Dimethyl-1-(6-methoxy-2-pyridinyl)-1H-pyrazolo[3,4-b]quinolin-4-ylamine]	46.3%	-124%	27.8%	60.7%	66.5%	–
Cc1cccnc1-n1nc(C)c2c(N)c3cccc(C)c3nc21 [Example 1-62, 3,8-Dimethyl-1-(3-methyl-2-pyridinyl)-1H-pyrazolo[3,4-b]quinolin-4-ylamine]	–	-13.8%	4.8%	–	19.4%	–
Cc1cccc2c(N)c3c(C)nn(-c4ccccn4)c3nc12 [Example 1-46, 3,8-Dimethyl-1-(2-pyridinyl)-1H-pyrazolo[3,4-b]quinolin-4-ylamine hydrochloride]	–	-132%	5.2%	–	80.4%	–
Cc1cccc2c(=O)c3c(C)nn(-c4ccccn4)c3[nH]c12 [Example 1-47, 3,8-Dimethyl-1-(2-pyridinyl)-1,9-dihydro-4H-pyrazolo[3,4-b]quinolin-4-one]	-17.1%	31.8%	61.1%	4.9%	49.9%	–
